PubChem BioAssay (NCI)
Values joined by “and” are separate entries in the source; they are usually repeats but may differ in a detail not shown here. Equal entries are not always repeated.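 Step 1: Grow cells in 96-well plates. Step 2: Expose to compound for 48 hours at 5 concentrations. Step 3: Interpolate endpoints linearly; if unreached, use highest concentration. Abbreviation: GI50, concentration required for 50% inhibition of growth. The concentration for full growth arrest is given as TGI.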

Key:
Test in all cases: DTP human tumour cell line panel, 48 h
SK-MEL-2 melanoma = test system: SK-MEL-2 melanoma
COLO 205 colon = test system: COLO 205 colon
A498 renal = test system: A498 renal
UACC-257 melanoma = test system: UACC-257 melanoma
ACHN renal = test system: ACHN renal
K-562 leukemia = test system: K-562 leukemia
SF-539 CNS = test system: SF-539 CNS
SNB-19 CNS = test system: SNB-19 CNS
TK-10 renal = test system: TK-10 renal
RXF 393 renal = test system: RXF 393 renal

| Structure (SMILES) | GI50 (SK-MEL-2 melanoma) | TGI (SK-MEL-2 melanoma) | GI50 (COLO 205 colon) | TGI (COLO 205 colon) | GI50 (A498 renal) | TGI (A498 renal) | GI50 (UACC-257 melanoma) | TGI (UACC-257 melanoma) | GI50 (ACHN renal) | TGI (ACHN renal) | GI50 (K-562 leukemia) | TGI (K-562 leukemia) | GI50 (SF-539 CNS) | TGI (SF-539 CNS) | GI50 (SNB-19 CNS) | TGI (SNB-19 CNS) | GI50 (TK-10 renal) | TGI (TK-10 renal) | GI50 (RXF 393 renal) | TGI (RXF 393 renal) |
| --- | --- | --- | --- | --- | --- | --- | --- | --- | --- | --- | --- | --- | --- | --- | --- | --- | --- | --- | --- | --- |
| Cn1cc(C2=C(c3c4n(c5ccccc35)CCC(CN)CC4)C(=O)NC2=O)c2ccccc21 (centres undefined) | 4.02 µM | 8.25 µM | 3.49 µM | 7.45 µM | 3.96 µM | 7.55 µM | 3.89 µM | 7.57 µM | 4430 nM | 8.67 µM | 4.72 µM | 11.9 µM | 3.91 µM | 7.35 µM | 4.52 µM | 10.7 µM | 3310 nM | 6.95 µM | 3.65 µM | 7.1 µM |
| COC(=O)C1=CC2OC13CC1CCC3(C2=O)C1(C)C (centres undefined) | – | 28.7 µM | – | 29.8 µM | – | 49 µM | – | 24.1 µM | – | 21.2 µM | – | 56.4 µM | – | 27.3 µM | – | 52.3 µM | – | 22.6 µM | – | 25.8 µM |
| O=C(O)CC1(C(=O)O)CCCCC1 | – | > 100 µM | – | > 100 µM | – | > 100 µM | – | > 100 µM | – | > 100 µM | – | > 100 µM | – | > 100 µM | – | > 100 µM | – | > 100 µM | – | > 100 µM |
| COc1ccc(F)cc1C(=O)c1cnc(NC2CCN(S(C)(=O)=O)CC2)nc1N | 3.48 µM | 9.76 µM | 1.25 µM | 5.22 µM | 3.22 µM | 8.06 µM | 4.24 µM | 15.5 µM | 1550 nM | > 21.4 µM | 6.25 µM | > 25 µM | 3.29 µM | 7.77 µM | 1.8 µM | > 25 µM | 1830 nM | 14.7 µM | 2.75 µM | 6.58 µM |
| CO[C@H](C(=O)N[C@@H](CCCCNC(=O)OCc1ccccc1)C(=O)OC(C)(C)C)[C@@H]1Cc2cc3cc(OC4CC(OC5CC(O)C(O)C(C)O5)C(O)C(C)O4)c(C)c(O)c3c(O)c2C(=O)[C@H]1OC1CC(OC2CC(OC3CC(C)(O)C(O)C(C)O3)C(O)C(C)O2)C(O)C(C)O1 (some centres undefined) | 0.942 µM | 3.29 µM | 0.689 µM | 3.63 µM | 0.64 µM | 2.03 µM | 0.812 µM | 4.01 µM | 670 nM | 4.45 µM | 0.635 µM | > 10 µM | 0.559 µM | 3.08 µM | 0.52 µM | 2.6 µM | 1150 nM | > 10 µM | 0.705 µM | 2.02 µM |
| Cc1ccc2[nH]c(=O)c(C(C#N)c3ccccc3)nc2c1 (centres undefined) | – | 65.4 µM | – | 54.8 µM | – | > 100 µM | – | > 100 µM | – | > 100 µM | – | > 100 µM | – | > 100 µM | – | 89.2 µM | – | > 100 µM | – | 78.8 µM |
| COC1CC2CCC(C)[C@](O)(O2)C(=O)C(=O)N2CCCCC2C(=O)OC(C(C)CC2CCC(O)C(OC)C2)CC(=O)C(C)C=C(C)C(OC(=O)CN(C)C)C(OC)C(=O)C(C)CC(C)/C=C/C=C/C=C\1C (some centres undefined) | – | 15.1 µM | – | 25.2 µM | – | 11.9 µM | – | 24.1 µM | – | 19.6 µM | – | 13.6 µM | – | 12.7 µM | – | 15.9 µM | – | 23.8 µM | – | 15.5 µM |
| CN(C)CC1CCn2c(c(C3=C(c4cn(C)c5ccccc45)C(=O)NC3=O)c3ccccc32)C1 (centres undefined) | 3.96 µM | 7.82 µM | 3.42 µM | 7.51 µM | 4.47 µM | 9.22 µM | 3.93 µM | 7.52 µM | 3880 nM | 7.9 µM | 4.97 µM | 10.5 µM | 3.87 µM | 7.49 µM | 4.84 µM | 10.4 µM | 3030 nM | 7.27 µM | 3.3 µM | 6.71 µM |
| Cn1cnc2c(NCc3ccccc3)nc(NCCO)nc21 | 44.4 µM | 178 µM | 82.2 µM | 69.7 µM and 282 µM | 28.8 µM | 83.3 µM and 311 µM | 155 µM | > 474 µM | 92700 nM | > 468 µM | – | 489 µM | 36.7 µM | > 90 µM and 92.7 µM | 98.9 µM | 382 µM | 135000 nM | > 456 µM | 17.7 µM | 40.4 µM and 187 µM |
| COc1cc(-c2c(C)c(C)nc(OC)c2C#N)cc(OC)c1OC | – | > 100 µM | – | > 100 µM | – | > 100 µM | – | > 100 µM | – | > 100 µM | – | > 100 µM | – | > 100 µM | – | > 100 µM | – | > 100 µM | – | > 100 µM |
| O=C(Nc1ccc(Br)c(Cl)c1)c1cc(F)ccc1O | 0.558 µM | 2.08 µM | 2.75 µM | 13.9 µM | 0.162 µM | 1.03 µM | 0.526 µM | 2.79 µM | 610 nM | > 14.4 µM | 0.293 µM | > 50 µM | 0.771 µM | 6.32 µM | 0.729 µM | > 50 µM | 1920 nM | 29.8 µM | 1.06 µM | 3.97 µM |
